Measured values reported in ChEMBL document CHEMBL2016499, “Monoenomycin: A Simplified Trienomycin A Analogue that Manifests Anticancer Activity” (ACS Med Chem Lett, 2011).

What was measured:
MCF7 = assay: Cytotoxicity against human MCF7 cells at 72 hrs by MTS assay; format: functional, cell-based; conditions: MCF7, 72 h
HeLa = assay: Cytotoxicity against human HeLa cells at 72 hrs by MTS assay; format: functional, cell-based

COc1cc2cc(c1)NC(=O)CCCCCCC=CC[C@H](OC(=O)[C@@H](CC(C)C)NC(=O)C1CCCCC1)CC/C(C)=C/CC2 (mixture of isomers)
IC50 (MCF7): > 100000 nM
IC50 (HeLa): > 100000 nM

COc1cc2cc(c1)NC(=O)CCCCCCC=CC[C@H](OC(=O)[C@@H](C)NC(=O)C1CCCC1)CC/C(C)=C/CC2 (mixture of isomers)
IC50 (MCF7): 720 nM
IC50 (HeLa): 1600 nM

CO[C@H]1/C=C/C=C/C=C/C[C@H](OC(=O)[C@@H](C)NC(=O)C2CCCCC2)[C@H](C)[C@@H](O)/C(C)=C\CCc2cc(O)cc(c2)NC(=O)C1 [TRIENOMYCIN A]
IC50 (HeLa): 128 nM

COc1cc2cc(c1)NC(=O)CCCCCCC=CC[C@H](OC(=O)[C@@H](Cc1ccccc1)NC(=O)C1CCCCC1)CC/C(C)=C/CC2 (mixture of isomers)
IC50 (MCF7): 5100 nM
IC50 (HeLa): 4600 nM

COc1cc2cc(c1)NC(=O)CCCCCCC=CC[C@H](OC(=O)[C@@H](C)NC(=O)C1CCCCC1)CC/C(C)=C/CC2 (mixture of isomers)
IC50 (MCF7): 530 nM
IC50 (HeLa): 470 nM

COc1cc2cc(c1)NC(=O)CCCCCCC=CC[C@H](OC(=O)CNC(=O)C1CCCCC1)CC/C(C)=C/CC2 (mixture of isomers)
IC50 (MCF7): 12000 nM
IC50 (HeLa): 13000 nM

COC1=C2C[C@@H](C)C[C@H](OC)[C@H](O)[C@@H](C)/C=C(\C)[C@H](OC(N)=O)[C@@H](OC)/C=C\C=C(/C)C(=O)NC(=CC1=O)C2=O [GELDANAMYCIN]
IC50 (MCF7): 53 nM
IC50 (HeLa): > 5000 nM

COc1cc2cc(c1)NC(=O)CCCCCCC=CC[C@H](OC(=O)[C@@H](C)NC(C)=O)CC/C(C)=C/CC2 (mixture of isomers)
IC50 (MCF7): 1700 nM
IC50 (HeLa): 2500 nM

COc1cc2cc(c1)NC(=O)CCCCCCC=CC[C@H](OC(=O)[C@H](NC(=O)C1CCCCC1)C(C)C)CC/C(C)=C/CC2 (mixture of isomers)
IC50 (MCF7): 1000 nM
IC50 (HeLa): 9100 nM

COc1cc2cc(c1)NC(=O)CCCCCCC=CC[C@H](OC(=O)[C@@H](C)NC(=O)C1CCCCC1)CC/C(C)=C\CC2 (mixture of isomers)
IC50 (MCF7): > 100000 nM
IC50 (HeLa): > 100000 nM

COc1cc2cc(c1)NC(=O)CCCCCCC=CC[C@H](OC(=O)[C@H](C)NC(=O)C1CCCCC1)CC/C(C)=C/CC2 (mixture of isomers)
IC50 (MCF7): 1900 nM
IC50 (HeLa): 1700 nM
